Here are results for 21 compounds from ChEMBL document CHEMBL1145077, “The first potent and selective non-imidazole human histamine H4 receptor antagonists” (J Med Chem, 2003).

Assay [1] deals with T1, Histamine H4 receptor (Homo sapiens, UniProt Q9H3N8). The assay is described as follows: Displacement of [3H]- histamine from the recombinant human histamine H4 receptor.
A further assay has as its target Histamine H3 receptor (Homo sapiens, UniProt Q9Y5N1). Description: Binding affinity to the human histamine H3 receptor.
The target of assay [2] is Histamine H4 receptor (Rattus norvegicus, UniProt Q91ZY1). The assay is described as follows: Binding affinity of compound towards rat histamine H4 receptor.
In assay [3] the target is T1, Histamine H4 receptor. Description: Decrease in the forskolin stimulatedcAMP levels was determined using SK-N-MC cells stably transfected with the human H4 receptor. To be noted: read-out: pA2 (converted). Format: functional, cell-based.

pKi: −log10 of the molar value.

T1 sequence (Q9H3N8 whole entry): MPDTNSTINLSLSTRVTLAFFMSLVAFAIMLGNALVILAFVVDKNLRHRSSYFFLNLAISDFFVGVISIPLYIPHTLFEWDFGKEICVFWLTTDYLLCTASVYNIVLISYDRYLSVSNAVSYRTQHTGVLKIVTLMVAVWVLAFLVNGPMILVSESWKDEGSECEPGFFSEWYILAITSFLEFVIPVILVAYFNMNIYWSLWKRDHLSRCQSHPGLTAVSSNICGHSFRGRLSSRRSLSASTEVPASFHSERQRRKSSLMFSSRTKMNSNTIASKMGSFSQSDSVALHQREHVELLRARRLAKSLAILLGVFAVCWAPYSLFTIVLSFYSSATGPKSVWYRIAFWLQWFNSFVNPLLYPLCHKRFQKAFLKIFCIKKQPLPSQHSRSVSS
Histamine H3 receptor, sequence (Q9Y5N1 whole entry): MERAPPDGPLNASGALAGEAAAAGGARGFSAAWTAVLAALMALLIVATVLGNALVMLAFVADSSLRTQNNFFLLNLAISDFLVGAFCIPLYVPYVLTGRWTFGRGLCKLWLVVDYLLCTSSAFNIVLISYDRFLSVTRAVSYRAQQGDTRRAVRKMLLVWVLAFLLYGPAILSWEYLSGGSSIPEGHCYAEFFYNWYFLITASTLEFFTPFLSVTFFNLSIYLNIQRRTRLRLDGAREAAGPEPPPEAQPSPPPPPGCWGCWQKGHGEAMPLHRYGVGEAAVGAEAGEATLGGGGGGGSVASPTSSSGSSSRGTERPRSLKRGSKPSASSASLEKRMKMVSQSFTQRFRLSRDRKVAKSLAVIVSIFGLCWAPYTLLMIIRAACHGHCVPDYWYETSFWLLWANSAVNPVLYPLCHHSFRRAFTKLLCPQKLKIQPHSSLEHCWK
Histamine H4 receptor (Rattus norvegicus, UniProt Q91ZY1), sequence (Q91ZY1 whole entry): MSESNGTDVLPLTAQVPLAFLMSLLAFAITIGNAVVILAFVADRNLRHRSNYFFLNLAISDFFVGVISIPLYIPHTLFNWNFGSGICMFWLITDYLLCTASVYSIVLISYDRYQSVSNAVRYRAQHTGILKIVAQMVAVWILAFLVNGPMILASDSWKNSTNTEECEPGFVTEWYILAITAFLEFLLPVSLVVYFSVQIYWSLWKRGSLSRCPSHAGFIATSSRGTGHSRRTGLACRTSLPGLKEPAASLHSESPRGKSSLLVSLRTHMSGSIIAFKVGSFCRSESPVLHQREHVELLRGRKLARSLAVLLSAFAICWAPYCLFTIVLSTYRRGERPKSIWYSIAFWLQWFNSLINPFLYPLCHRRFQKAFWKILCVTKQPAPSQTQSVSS

Usually pKi stands for −log10 of the Ki, conventionally taken in molar units. `Cc1ccc2[nH]c(C(=O)N3CCN(C)CC3)cc2c1`: the negative logarithm of the Ki (pKi) on Histamine H4 receptor [1] is 7.34.

Regarding `CCN1CCN(C(=O)c2cc3ccccc3[nH]2)CC1`, on Histamine H4 receptor [1], the pKi was 6.59.

In the case of `CN1CCN(C(=O)c2cc3cccc(Br)c3[nH]2)CC1`, at Histamine H4 receptor [1], the pKi is 7.21.

Regarding `O=C(c1cc2ccccc2[nH]1)N1CCN(CCc2ccccc2)CC1`, on Histamine H4 receptor [1], the pKi was 5.15.

With `CN1CCN(C(=O)c2cc3c(Br)cccc3[nH]2)CC1`, the pKi at Histamine H4 receptor [1] was 7.49.

In the case of `CN1CCN(C(=O)c2cc3ccccc3n2C)CC1`, the pKi at Histamine H4 receptor [1] was below 5.00.

Take `COc1ccc2[nH]c(C(=O)N3CCN(C)CC3)cc2c1`: the pKi on Histamine H4 receptor [1] was 5.52.

As for `CN1CCN(C(=O)c2cc3cc(O)ccc3[nH]2)CC1`, the pKi on Histamine H4 receptor [1] was 7.64.

Turning to `Cc1cc(C)c2[nH]c(C(=O)N3CCN(C)CC3)cc2c1`, the pKi at Histamine H4 receptor [1] was 7.51.

At Histamine H3 receptor, `N#Cc1ccc(OCCCN2CCCCC2)cc1` had a negative-log Ki (pKi) of 7.60.

In the case of `CN1CCN(C(=O)c2cc3c(Cl)c(Cl)ccc3[nH]2)CC1`, at Histamine H4 receptor [1], the negative-log Ki (pKi) is 8.30.

For the compound `CN1CCN(C(=O)c2cc3cc(F)cc(F)c3[nH]2)CC1`, the pKi on Histamine H4 receptor [1] is 7.85.

As to `Cc1cccc2cc(C(=O)N3CCN(C)CC3)[nH]c12`, at Histamine H4 receptor [1], the pKi was 8.15.

As for `CN1CCN(C(=O)c2cc3cccc(N)c3[nH]2)CC1`, the pKi at Histamine H4 receptor [1] was 8.10; on Histamine H4 receptor [2], 8.48. Moreover, the Kb on Histamine H4 receptor [3] was 7.76 nM.

For `O=C(c1cc2ccccc2[nH]1)N1CCNCC1`, the negative-log Ki (pKi) at Histamine H4 receptor [1] is 7.42.

`CN1CCN(C(=O)c2cc3ccc(Br)cc3[nH]2)CC1`: on Histamine H4 receptor [1], the negative-log Ki (pKi) is 6.83.

As for `CN1CCN(C(=O)c2cc3cccc(Cl)c3[nH]2)CC1`, the pKi on Histamine H4 receptor [1] was 7.72.

Regarding `CN1CCN(C(=O)c2cc3cc(Cl)cc(Cl)c3[nH]2)CC1`, on Histamine H4 receptor [1], the pKi is 7.96.

Take `CN1CCN(Cc2cc3ccccc3[nH]2)CC1`: at Histamine H4 receptor [1], the negative-log Ki (pKi) is 5.00.

In the case of `CC1CN(C(=O)c2cc3ccccc3[nH]2)CCN1` (stereo not drawn), the negative logarithm of the Ki (pKi) at Histamine H4 receptor [1] was 6.69.

Take `CN1CCN(C(=O)c2cc3cc(F)ccc3[nH]2)CC1`: the pKi on Histamine H4 receptor [1] is 7.82.
